The record followed here is patent US9556165B2 (priority 2012, dated 2017).

Format in all cases: cell-based
Assay [1] has as its system E. coli ATCC25922. The assay can be described thus: MIC determination, broth microdilution (CLSI). The settings on record: Escherichia coli, ATCC25922, strain 1. (In general: In broth dilution the organism is exposed to a series of concentrations in liquid medium.)
Assay [2] deals with K. pneumoniae 60. Kind of assay: MIC determination, broth microdilution (CLSI). To be noted: Klebsiella pneumoniae, 60, strain 2.
In assay [3] the test system is E. cloacae 34654. Kind of assay: MIC determination, broth microdilution (CLSI). The settings on record: Enterobacter cloacae, 34654, strain 3.
In assay [4] the test system is C. freundii K21/3034. The assay can be described thus: MIC determination, broth microdilution (CLSI). The settings on record: Citrobacter freundii, K21/3034, strain 4.
For assay [5], the system named is M. morganii 126/3048. Kind of assay: MIC determination, broth microdilution (CLSI). To be noted: Morganella morganii, 126/3048, strain 5.
In assay [6] the test system is P. aeruginosa PAO1. The assay can be described thus: MIC determination, broth microdilution (CLSI). To be noted: Pseudomonas aeruginosa, PAO1, strain 6.
Assay [7] concerns P. aeruginosa 2297 (AmpC wt). Kind of assay: MIC determination, broth microdilution (CLSI). The settings on record: Pseudomonas aeruginosa, strain 7.
Assay [8] has as its system P. aeruginosa 2297-con (AmpC derepressed). The assay can be described thus: MIC determination, broth microdilution (CLSI). The settings on record: Pseudomonas aeruginosa, read-out: strain 8 MIC, strain 8.
Assay [9] relates to A. baumannii ATCC15308. Kind of assay: MIC determination, broth microdilution (CLSI). The settings on record: Acinetobacter baumannii, ATCC15308, strain 9.
For assay [10], the system named is S. maltophilia ICB7569. Kind of assay: MIC determination, broth microdilution (CLSI). To be noted: Stenotrophomonas maltophilia, ICB7569, strain 10.
Assay [11] concerns S. aureus 133. Kind of assay: MIC determination, broth microdilution (CLSI).
Assay [12] relates to H. influenzae ATCC 49247. Kind of assay: MIC determination, broth microdilution (CLSI). To be noted: Haemophilus influenzae, ATCC49247, strain 12; broth microdilution; read-out: MIC strain 12 (H. influenzae ATCC 49247).
Assay [13] has as its system S. pneumoniae 113. Kind of assay: MIC determination, broth microdilution (CLSI). The settings on record: Streptococcus pneumoniae, 113, strain 13; broth microdilution; read-out: MIC strain 13 (S. pneumoniae 113).
The test system of assay [14] is B. fragilis 6688. Kind of assay: MIC determination, broth microdilution (CLSI). The settings on record: Bacteroides fragilis, 6688, strain 15; broth microdilution; read-out: MIC strain 15 (B. fragilis 6688).
Assay [15] deals with C. perfringens DSM756. Kind of assay: microbe, parasite or virus in culture. To be noted: Clostridium perfringens, DSM756, read-out: MIC strain 16 (C. perfringens DSM756), strain 16; broth microdilution.
Assay [16] deals with E. coli J62. Kind of assay: MIC determination, broth microdilution (CLSI). The settings on record: Escherichia coli, J62, strain 17; broth microdilution; read-out: MIC strain 17 (E. coli J62).
For assay [17], the system named is E. coli J62-TEM-3. Kind of assay: MIC determination, broth microdilution (CLSI). The settings on record: Escherichia coli, J62TEM3, read-out: MIC strain 18 (E. coli J62-TEM-3), strain 18; broth microdilution.
The subject of assay [18] is Bacteria. The assay can be described thus: MIC determination in combination with β-lactamase inhibitors (constant 4 μg/mL).
Where [19] appears, read: Staphylococcus aureus, 133, strain 11, read-out: strain 11 MIC.
Setting [20] is: Staphylococcus aureus, 133, strain 14, broth microdilution, read-out: MIC strain 14 (S. aureus 133).

Values after ≈ are worked out from the molar mass of the structure shown. Like-named read-outs stand apart in the source and are kept apart here.

For `CC1(C)[C@H](NC(=O)/C(=N\OCCOc2ccc(C(=N)N)cc2)c2csc(N)n2)C(=O)N1OS(=O)(=O)O` [Example 41, (2Z)-2-(2-Amino-1,3-thiazol-4-yl)-2-{[2-(4-carbamimidoylphenoxy)ethoxy]imino}-N-[(3S)-2,2-dimethyl-4-oxo-1-(sulfooxy)azetidin-3-yl]ethanamide], the MIC was 0.25 µg/mL (≈ 0.462 µM) in [1]; 0.5 µg/mL (≈ 0.923 µM) in assay [2]; 0.25 µg/mL (≈ 0.462 µM) in assay [3]; 0.125 µg/mL (≈ 0.231 µM) in [4]; 0.25 µg/mL (≈ 0.462 µM) in assay [5]; 4 µg/mL (≈ 7.39 µM) in assay [6]. Besides, the MIC in assay [7] was 4 µg/mL (≈ 7.39 µM); in [8] it was 4 µg/mL (≈ 7.39 µM); in assay [9], 1 µg/mL (≈ 1.85 µM); in assay [10] it was 4 µg/mL (≈ 7.39 µM); in [11] (setting [19]) it was ≤ 0.063 µg/mL; in assay [11] (setting [20]) it was 4 µg/mL (≈ 7.39 µM). Besides, the MIC in [12] was ≤ 0.063 µg/mL; in assay [13], ≤ 0.063 µg/mL; in [14], 2 µg/mL (≈ 3.69 µM); in assay [15], 1 µg/mL (≈ 1.85 µM); in assay [16], 0.25 µg/mL (≈ 0.462 µM); in [17], 8 µg/mL (≈ 14.8 µM). Also, the “MIC strain 19 (E. coli J62-TEM-3 + 4 μg/mL clavulanic acid)” value in assay [18] is 0.25 µg/mL. The “MIC strain 20 (E. coli J62-TEM-3 + 4 μg/mL sulbactam)” value in assay [18] turned out to be 0.25 µg/mL. Further, the “MIC strain 21 (E. coli J62-TEM-3 + 4 μg/mL tazobactam)” value in [18] is 0.25 µg/mL.

Take `CC1(C)[C@H](NC(=O)/C(=N\OCCOc2ccc(C(=N)NCc3ccccn3)cc2)c2csc(N)n2)C(=O)N1OS(=O)(=O)O` [Example 76, (2Z)-2-(2-Amino-1,3-thiazol-4-yl)-N-[(3S)-2,2-dimethyl-4-oxo-1-(sulfooxy)azetidin-3-yl]-2-[(2-{4-[N-(pyridin-2-ylmethyl)carbamimidoyl]phenoxy}ethoxy)imino]ethanamide]: the MIC in assay [1] was found to be 0.5 µg/mL (≈ 0.79 µM); in [2], 0.5 µg/mL (≈ 0.79 µM); in assay [3], 1 µg/mL (≈ 1.58 µM); in assay [4], 0.5 µg/mL (≈ 0.79 µM); in assay [5] it was 1 µg/mL (≈ 1.58 µM); in [6], 16 µg/mL (≈ 25.3 µM). For the same molecule, the MIC was 16 µg/mL (≈ 25.3 µM) in assay [7]; 32 µg/mL (≈ 50.6 µM) in [8]; 4 µg/mL (≈ 6.32 µM) in [9]; 16 µg/mL (≈ 25.3 µM) in [10]; ≤ 0.063 µg/mL in assay [11] (setting [19]); 4 µg/mL (≈ 6.32 µM) in [11] (setting [20]). The MIC in assay [12] is 0.25 µg/mL (≈ 0.395 µM); in [13] it was ≤ 0.063 µg/mL; in assay [14] it was 4 µg/mL (≈ 6.32 µM); in assay [15] it was 2 µg/mL (≈ 3.16 µM); in assay [16] it was 0.5 µg/mL (≈ 0.79 µM); in assay [17], 8 µg/mL (≈ 12.6 µM). In addition, in [18], the “MIC strain 19 (E. coli J62-TEM-3 + 4 μg/mL clavulanic acid)” value turned out to be 0.5 µg/mL. In addition, in assay [18], the “MIC strain 20 (E. coli J62-TEM-3 + 4 μg/mL sulbactam)” value is 0.5 µg/mL. The “MIC strain 21 (E. coli J62-TEM-3 + 4 μg/mL tazobactam)” value in assay [18] was 0.5 µg/mL.

Consider `CC1(C)[C@H](NC(=O)/C(=N\OCc2ccc(C(=N)N)cc2)c2csc(N)n2)C(=O)N1OS(=O)(=O)O` [Example 57, (2Z)-2-(2-Amino-1,3-thiazol-4-yl)-2-{[(4-carbamimidoylbenzyl)oxy]imino}-N-[(3S)-2,2-dimethyl-4-oxo-1-(sulfooxy)azetidin-3-yl]ethanamide], for which the MIC in [1] is 1 µg/mL (≈ 1.95 µM); in assay [2] it was 2 µg/mL (≈ 3.91 µM); in assay [3] it was 2 µg/mL (≈ 3.91 µM); in assay [4], 1 µg/mL (≈ 1.95 µM); in assay [5], 1 µg/mL (≈ 1.95 µM); in [6] it was 32 µg/mL (≈ 62.6 µM). Also, the MIC is 32 µg/mL (≈ 62.6 µM) in assay [7]; 16 µg/mL (≈ 31.3 µM) in [8]; 2 µg/mL (≈ 3.91 µM) in assay [9]; 32 µg/mL (≈ 62.6 µM) in [10]; ≤ 0.063 µg/mL in [11] (setting [19]); 4 µg/mL (≈ 7.82 µM) in assay [11] (setting [20]). Further, the MIC in assay [12] is 0.125 µg/mL (≈ 0.244 µM); in assay [13], ≤ 0.063 µg/mL; in assay [14] it was 1 µg/mL (≈ 1.95 µM); in assay [15], 2 µg/mL (≈ 3.91 µM); in assay [16] it was 2 µg/mL (≈ 3.91 µM); in assay [17] it was 32 µg/mL (≈ 62.6 µM). Besides, the “MIC strain 19 (E. coli J62-TEM-3 + 4 μg/mL clavulanic acid)” value in assay [18] was 1 µg/mL. In addition, the “MIC strain 20 (E. coli J62-TEM-3 + 4 μg/mL sulbactam)” value in assay [18] is 1 µg/mL. Also, in assay [18], the “MIC strain 21 (E. coli J62-TEM-3 + 4 μg/mL tazobactam)” value worked out at 2 µg/mL.

On to `CC1(C)[C@H](NC(=O)/C(=N\OCCOc2ccc(C(=N)NCCNC(=N)N)cc2)c2csc(N)n2)C(=O)N1OS(=O)(=O)O` [Example 78, (2Z)-2-(2-Amino-1,3-thiazol-4-yl)-2-[(2-{4-[N-(2-carbamimidamidoethyl)carbamimidoyl]phenoxy}ethoxy)imino]-N-[(3S)-2,2-dimethyl-4-oxo-1-(sulfooxy)azetidin-3-yl]ethanamide], for which the MIC in assay [1] was 0.25 µg/mL (≈ 0.399 µM); in assay [2], 0.25 µg/mL (≈ 0.399 µM); in [3], 0.5 µg/mL (≈ 0.798 µM); in assay [4], 0.25 µg/mL (≈ 0.399 µM); in assay [5], 0.5 µg/mL (≈ 0.798 µM); in assay [6], 4 µg/mL (≈ 6.38 µM). For the same molecule, the MIC was 4 µg/mL (≈ 6.38 µM) in assay [7]; 2 µg/mL (≈ 3.19 µM) in assay [8]; 0.25 µg/mL (≈ 0.399 µM) in [9]; 8 µg/mL (≈ 12.8 µM) in assay [10]; ≤ 0.063 µg/mL in assay [11] (setting [19]); 1 µg/mL (≈ 1.6 µM) in assay [11] (setting [20]). In addition, the MIC was ≤ 0.063 µg/mL in [12]; ≤ 0.063 µg/mL in [13]; 4 µg/mL (≈ 6.38 µM) in assay [14]; 2 µg/mL (≈ 3.19 µM) in assay [15]; 0.5 µg/mL (≈ 0.798 µM) in assay [16]; 4 µg/mL (≈ 6.38 µM) in assay [17]. Moreover, the “MIC strain 19 (E. coli J62-TEM-3 + 4 μg/mL clavulanic acid)” value in assay [18] was found to be 0.25 µg/mL. Further, the “MIC strain 20 (E. coli J62-TEM-3 + 4 μg/mL sulbactam)” value in assay [18] turned out to be 0.5 µg/mL. Besides, in [18], the “MIC strain 21 (E. coli J62-TEM-3 + 4 μg/mL tazobactam)” value stood at 0.5 µg/mL.

Turning to `CC1(C)[C@H](NC(=O)/C(=N\O[C@@H](COc2ccc(C(=N)NC3CNCC3N)cc2)C(=O)O)c2csc(N)n2)C(=O)N1OS(=O)(=O)O` (stereo partly drawn) [Example 106, (2S)-3-{4-[N-(4-Aminopyrrolidin-3-yl)carbamimidoyl]phenoxy}-2-({[(1Z)-1-(2-amino-1,3-thiazol-4-yl)-2-{[(3S)-2,2-dimethyl-4-oxo-1-(sulfooxy)azetidin-3-yl]amino}-2-oxoethylidene]amino}oxy)propanoic acid], the MIC in [1] was 0.125 µg/mL (≈ 0.187 µM); in assay [2] it was 0.125 µg/mL (≈ 0.187 µM); in assay [3], 0.125 µg/mL (≈ 0.187 µM); in [4], 0.125 µg/mL (≈ 0.187 µM); in assay [5] it was ≤ 0.063 µg/mL; in assay [6], 1 µg/mL (≈ 1.49 µM). Besides, the MIC in [7] is 2 µg/mL (≈ 2.99 µM); in assay [8], 1 µg/mL (≈ 1.49 µM); in assay [9], 2 µg/mL (≈ 2.99 µM); in assay [10], 4 µg/mL (≈ 5.97 µM); in [11] (setting [19]) it was ≤ 0.063 µg/mL; in assay [12] it was ≤ 0.063 µg/mL. Further, the MIC turned out to be 0.5 µg/mL (≈ 0.747 µM) in assay [13]; 8 µg/mL (≈ 11.9 µM) in [14]; 1 µg/mL (≈ 1.49 µM) in assay [15]; 0.125 µg/mL (≈ 0.187 µM) in assay [16]; 8 µg/mL (≈ 11.9 µM) in assay [17]. The “MIC strain 19 (E. coli J62-TEM-3 + 4 μg/mL clavulanic acid)” value in [18] stood at 0.125 µg/mL. Also, the “MIC strain 20 (E. coli J62-TEM-3 + 4 μg/mL sulbactam)” value in [18] is “≦0.063 mg/L”. In [18], the “MIC strain 21 (E. coli J62-TEM-3 + 4 μg/mL tazobactam)” value is 0.125 µg/mL.
